Data taken from US9340555B2, “Compounds as tyrosine kinase modulators” (Allergan, Inc., priority 2009, dated 2016).

Key:
VEGFR2 = VEGFR2 (Homo sapiens (Human), UniProt P35968); assay: VEGF Stimulated Ca++ Signal In Vitro (Cellular VEGFR2, FLIPR); assay type: cell-based; conditions: HUVEC, VEGF stimulation (5 ng/mL), intracellular calcium
VEGFR1 = VEGFR1 (Homo sapiens (Human), UniProt P17948); assay: Enzymic VEGFR1; assay type: biochemical
[1] = target: human VEGF receptor (VEGFR-2) (Homo sapiens (Human), UniProt P35968); assay: VEGFR2 Kinase Assay (Enzymic VEGFR2); assay type: biochemical; conditions: His-VEGFR-2 cytoplasmic domain, 3.6 µM ATP
Procedure: VEGFR2 Kinase Assay The cytoplasmic domain of the human VEGF receptor (VEGFR-2) was expressed as a Histidine-tagged fusion protein following infection of insect cells using an His engineered baculovirus. […] Kinase assays were performed in 96 well microtiter plates that were coated overnight with 30 µg of poly-Glu-[…]:1) in 10 mM Phosphate Buffered Saline (PBS), pH 7.2-7.4. The plates were incubated with 1% BSA and then washed four times with PBS prior to starting the reaction. […] Reactions were initiated by the addition 0.5 ng of purified protein. Following a ten minute incubation at 25° C., the reactions were washed four times with PBS containing 0.05% Tween-20. 100 µl of a monoclonal anti-phosphotyrosine antibody-peroxidase conjugate was diluted 1:10000 in PBS-Tween-20 and added to the wells for 30 minutes. Following four washes with PBS-Tween-20, 100 µl of 0-phenylenediamine Dihydrochloride in Phosphate-citrate buffer, containing urea hydrogen peroxide, was added to the wells for 7 minutes as a colorimetric substrate for the peroxidase. […] IC50 values for compound inhibition were calculated directly from graphs of optical density (arbitrary units) versus compound concentration following subtraction of blank values.

[2] = system: Rabbit Eye VEGF Permeability; assay: Rabbit Eye VEGF Permeability Model; assay type: in vivo
Text: Rabbit Eye VEGF Permeability Model
Assay used was detailed by Jeffrey Edelman, etc in Exp. Eye. Res. 80 (2005), Pg 249-258.

PDGFRβ = PDGFRβ (Homo sapiens (Human), UniProt P09619); assay: Enzymic PDGFRβ; assay type: biochemical
Chain of PDGFRβ (P09619 33-1106, species assumed): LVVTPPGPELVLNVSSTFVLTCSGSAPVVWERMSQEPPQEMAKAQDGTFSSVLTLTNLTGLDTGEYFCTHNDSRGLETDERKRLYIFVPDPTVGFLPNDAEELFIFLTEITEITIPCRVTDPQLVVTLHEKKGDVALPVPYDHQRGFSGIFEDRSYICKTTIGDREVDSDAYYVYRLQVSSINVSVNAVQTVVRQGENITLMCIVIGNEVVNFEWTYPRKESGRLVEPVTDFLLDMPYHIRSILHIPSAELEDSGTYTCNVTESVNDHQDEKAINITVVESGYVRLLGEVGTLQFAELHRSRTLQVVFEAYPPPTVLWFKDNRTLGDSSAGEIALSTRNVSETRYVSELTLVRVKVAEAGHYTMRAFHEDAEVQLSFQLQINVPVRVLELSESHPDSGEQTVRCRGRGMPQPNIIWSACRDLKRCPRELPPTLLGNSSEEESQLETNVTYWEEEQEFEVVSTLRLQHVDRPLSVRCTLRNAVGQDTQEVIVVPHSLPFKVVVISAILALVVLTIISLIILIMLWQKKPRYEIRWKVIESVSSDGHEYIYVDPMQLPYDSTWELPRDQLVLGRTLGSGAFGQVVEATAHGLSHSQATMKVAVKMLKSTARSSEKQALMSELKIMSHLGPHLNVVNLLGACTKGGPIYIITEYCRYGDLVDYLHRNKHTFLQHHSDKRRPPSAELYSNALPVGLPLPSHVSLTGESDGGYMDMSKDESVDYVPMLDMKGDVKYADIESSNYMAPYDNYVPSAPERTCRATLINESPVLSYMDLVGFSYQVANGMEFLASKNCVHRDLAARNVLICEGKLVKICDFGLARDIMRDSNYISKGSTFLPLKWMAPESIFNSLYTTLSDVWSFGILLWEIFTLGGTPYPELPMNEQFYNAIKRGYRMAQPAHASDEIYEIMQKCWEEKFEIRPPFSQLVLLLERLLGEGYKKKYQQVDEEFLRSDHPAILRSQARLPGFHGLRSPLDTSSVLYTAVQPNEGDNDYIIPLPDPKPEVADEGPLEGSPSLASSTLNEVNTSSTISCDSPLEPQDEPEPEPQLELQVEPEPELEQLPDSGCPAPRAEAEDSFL

Chain of human VEGF receptor (VEGFR-2) (P35968 786-1356): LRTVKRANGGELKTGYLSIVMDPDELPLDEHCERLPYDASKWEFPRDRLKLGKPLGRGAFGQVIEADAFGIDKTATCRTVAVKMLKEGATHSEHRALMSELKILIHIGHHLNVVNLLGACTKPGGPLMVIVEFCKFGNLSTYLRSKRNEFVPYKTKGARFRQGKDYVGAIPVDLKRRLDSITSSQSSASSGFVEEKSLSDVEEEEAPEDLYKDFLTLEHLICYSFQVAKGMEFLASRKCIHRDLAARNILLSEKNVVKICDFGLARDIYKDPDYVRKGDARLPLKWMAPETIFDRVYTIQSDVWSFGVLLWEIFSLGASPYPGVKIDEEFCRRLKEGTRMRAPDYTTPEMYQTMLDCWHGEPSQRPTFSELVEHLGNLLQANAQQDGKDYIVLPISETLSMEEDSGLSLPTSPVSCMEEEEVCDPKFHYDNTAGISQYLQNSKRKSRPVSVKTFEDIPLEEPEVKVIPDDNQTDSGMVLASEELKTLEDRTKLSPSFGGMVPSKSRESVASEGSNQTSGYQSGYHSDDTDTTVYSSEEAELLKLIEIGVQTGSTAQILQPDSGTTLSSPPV
Chain of VEGFR1 (P17948 27-1338, species assumed): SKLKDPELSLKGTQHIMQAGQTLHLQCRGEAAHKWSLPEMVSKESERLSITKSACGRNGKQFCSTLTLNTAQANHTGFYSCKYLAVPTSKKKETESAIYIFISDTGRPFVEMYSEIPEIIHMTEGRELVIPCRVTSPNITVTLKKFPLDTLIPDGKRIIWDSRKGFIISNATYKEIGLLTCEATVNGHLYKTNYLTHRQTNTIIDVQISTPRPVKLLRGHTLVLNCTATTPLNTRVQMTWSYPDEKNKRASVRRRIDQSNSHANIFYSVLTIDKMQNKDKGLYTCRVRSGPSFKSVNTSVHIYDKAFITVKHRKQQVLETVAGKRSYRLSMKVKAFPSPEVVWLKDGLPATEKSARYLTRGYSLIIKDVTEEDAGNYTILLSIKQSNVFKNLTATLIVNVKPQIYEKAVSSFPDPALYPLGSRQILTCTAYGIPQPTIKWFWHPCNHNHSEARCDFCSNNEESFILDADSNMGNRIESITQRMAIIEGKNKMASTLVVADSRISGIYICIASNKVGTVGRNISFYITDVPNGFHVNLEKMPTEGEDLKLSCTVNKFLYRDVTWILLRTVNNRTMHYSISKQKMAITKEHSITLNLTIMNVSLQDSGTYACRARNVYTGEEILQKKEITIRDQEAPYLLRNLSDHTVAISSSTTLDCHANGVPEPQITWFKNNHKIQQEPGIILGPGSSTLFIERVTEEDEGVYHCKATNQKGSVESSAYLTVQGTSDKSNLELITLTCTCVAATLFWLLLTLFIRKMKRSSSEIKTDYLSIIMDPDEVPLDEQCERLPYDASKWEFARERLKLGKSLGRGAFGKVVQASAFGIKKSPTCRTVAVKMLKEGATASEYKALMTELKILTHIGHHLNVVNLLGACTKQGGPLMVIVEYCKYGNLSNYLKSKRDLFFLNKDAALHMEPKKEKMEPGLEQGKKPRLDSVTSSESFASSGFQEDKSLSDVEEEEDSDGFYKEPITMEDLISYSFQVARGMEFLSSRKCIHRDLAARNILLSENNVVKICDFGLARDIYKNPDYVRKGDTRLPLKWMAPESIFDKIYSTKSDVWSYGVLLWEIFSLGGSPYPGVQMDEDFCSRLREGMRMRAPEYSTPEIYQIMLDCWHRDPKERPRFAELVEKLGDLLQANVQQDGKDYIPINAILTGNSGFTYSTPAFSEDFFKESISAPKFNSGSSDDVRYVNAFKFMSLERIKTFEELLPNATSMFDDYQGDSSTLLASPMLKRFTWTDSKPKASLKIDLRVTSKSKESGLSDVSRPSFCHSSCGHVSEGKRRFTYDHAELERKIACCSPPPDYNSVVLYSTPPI
Chain of VEGFR2 (P35968 20-1356): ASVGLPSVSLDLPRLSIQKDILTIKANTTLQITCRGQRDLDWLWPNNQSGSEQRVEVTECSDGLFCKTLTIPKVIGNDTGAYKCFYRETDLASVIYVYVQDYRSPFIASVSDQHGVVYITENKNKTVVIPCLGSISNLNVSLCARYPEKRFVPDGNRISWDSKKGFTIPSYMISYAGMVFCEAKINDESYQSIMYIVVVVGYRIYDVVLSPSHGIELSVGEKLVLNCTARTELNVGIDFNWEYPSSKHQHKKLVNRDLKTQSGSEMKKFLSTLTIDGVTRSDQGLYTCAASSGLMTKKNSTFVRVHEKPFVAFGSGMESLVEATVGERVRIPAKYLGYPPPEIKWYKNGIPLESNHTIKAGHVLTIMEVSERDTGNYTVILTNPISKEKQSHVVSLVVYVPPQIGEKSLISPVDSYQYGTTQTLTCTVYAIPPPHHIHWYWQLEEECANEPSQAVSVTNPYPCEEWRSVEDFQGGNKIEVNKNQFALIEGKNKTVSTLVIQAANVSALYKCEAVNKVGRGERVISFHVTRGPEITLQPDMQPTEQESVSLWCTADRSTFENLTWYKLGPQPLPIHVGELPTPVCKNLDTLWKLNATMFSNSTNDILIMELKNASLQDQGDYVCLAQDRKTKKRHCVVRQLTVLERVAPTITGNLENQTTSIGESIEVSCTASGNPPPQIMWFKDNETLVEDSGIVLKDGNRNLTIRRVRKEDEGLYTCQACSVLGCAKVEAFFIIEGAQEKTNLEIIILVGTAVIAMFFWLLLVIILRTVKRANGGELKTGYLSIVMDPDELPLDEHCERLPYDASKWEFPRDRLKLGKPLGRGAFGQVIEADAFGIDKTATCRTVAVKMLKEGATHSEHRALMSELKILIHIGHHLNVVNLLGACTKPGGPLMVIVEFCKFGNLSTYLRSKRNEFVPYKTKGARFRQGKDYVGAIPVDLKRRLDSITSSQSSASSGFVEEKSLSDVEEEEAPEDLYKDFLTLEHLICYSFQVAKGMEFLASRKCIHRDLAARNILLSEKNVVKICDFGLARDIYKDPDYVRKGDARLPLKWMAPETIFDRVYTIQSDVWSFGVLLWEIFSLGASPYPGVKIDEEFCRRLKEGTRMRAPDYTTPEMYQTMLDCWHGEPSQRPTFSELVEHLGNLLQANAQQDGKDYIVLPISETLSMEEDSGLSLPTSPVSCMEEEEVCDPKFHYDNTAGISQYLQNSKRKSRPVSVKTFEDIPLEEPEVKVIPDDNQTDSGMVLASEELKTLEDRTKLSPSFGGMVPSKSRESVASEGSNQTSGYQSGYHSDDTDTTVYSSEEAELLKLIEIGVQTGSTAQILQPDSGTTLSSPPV

| SMILES | IC50 (VEGFR2) | IC50 (VEGFR1) | IC50 [1] | In Vivo Rabbit Eye VEGF Permeability [2] | IC50 (PDGFRβ) |
| --- | --- | --- | --- | --- | --- |
| Cc1ccc(F)c(NC(=O)Nc2ccc(Oc3ccnc4cc(C(=O)O)sc34)cc2)c1 [Compound F2, 7-[4-({[(2-Fluoro-5-methylphenyl)amino]carbonyl}amino)phenoxy]thieno[3,2-b]pyridine-2-carboxylic acid] | 29 nM | 16 nM | 20 nM | efficacious | – |
| Cc1ccc(F)c(NC(=O)Nc2ccc(Oc3ccnc4cc(C(=O)NCCCc5nn[nH]n5)sc34)cc2)c1 [Example 12, 7-[4-({[(2-fluoro-5-methylphenyl)amino]carbonyl}amino)phenoxy]-N-[3-(2H-tetrazol-5-yl)propyl]thieno[3,2-b]pyridine-2-carboxamide] | 126 nM | 4 nM | 3 nM | – | 20 nM |
| Cc1ccc(F)c(NC(=O)Nc2ccc(Oc3ccnc4cc(C(=O)NCCc5nn[nH]n5)sc34)cc2)c1 [Example 13, 7-[4-({[(2-fluoro-5-methylphenyl)amino]carbonyl}amino)phenoxy]-N-[2-(2H-tetrazol-5-yl)ethyl]thieno[3,2-b]pyridine-2-carboxamide] | 97 nM | 10 nM | 6 nM | – | 19 nM |
| CCOC(=O)CN1CCN(CCCNC(=O)c2cc3nccc(Oc4ccc(NC(=O)Nc5cc(C)ccc5F)cc4)c3s2)CC1 [Example 14, ethyl (4-{3-[({7-[4-({[(2-fluoro-5-methylphenyl)amino]carbonyl}amino)phenoxy]thieno[3,2-b]pyridin-2-yl}carbonyl)amino]propyl}piperazin-1-yl)acetate] | 34 nM | 5 nM | 4 nM | – | 13 nM |
| Cc1ccc(F)c(NC(=O)Nc2ccc(Oc3ccnc4cc(C(=O)NCCCN5CCCC(CO)C5)sc34)cc2)c1 (centres unmarked) [Example 15, 7-[4-({[(2-fluoro-5-methylphenyl)amino]carbonyl}amino)phenoxy]-N-{3-[3-(hydroxymethyl)piperidin-1-yl]propyl}thieno[3,2-b]pyridine-2-carboxamide] | 39 nM | 3 nM | 3 nM | – | 10 nM |
| COC(=O)CNCCCNC(=O)c1cc2nccc(Oc3ccc(NC(=O)Nc4cc(C)ccc4F)cc3)c2s1 [Example 18, methyl ({3-[({7-[4-({[(2-fluoro-5-methylphenyl)amino]carbonyl}amino)phenoxy]thieno[3,2-b]pyridin-2-yl}carbonyl)amino]propyl}amino)acetate] | 0.8 nM | 6 nM | 3 nM | Efficacious | 11 nM |
| COC(=O)CN(CCCNC(=O)c1cc2nccc(Oc3ccc(NC(=O)Nc4cc(C)ccc4F)cc3)c2s1)CC(=O)OC [Example 19, dimethyl 2,2′-({3-[({7-[4-({[(2-fluoro-5-methylphenyl)amino]carbonyl}amino)phenoxy]thieno[3,2-b]pyridin-2-yl}carbonyl)amino]propyl}imino)diacetate] | 0.3 nM | 9 nM | 4 nM | – | 14 nM |
| CCOC(=O)N1CCN(CCNC(=O)c2cc3nccc(Oc4ccc(NC(=O)Nc5cc(C)ccc5F)c(F)c4)c3s2)CC1 [Example 23, ethyl 4-{2-[({7-[3-fluoro-4-({[(2-fluoro-5-methylphenyl)amino]carbonyl}amino)phenoxy]thieno[3,2-b]pyridin-2-yl}carbonyl)amino]ethyl}piperazine-1-carboxylate] | 9 nM | 13 nM | 7 nM | – | 14 nM |
| Cc1ccc(F)c(NC(=O)Nc2ccc(Oc3ccnc4cc(C(=O)NCCN)sc34)cc2F)c1 [Example 32, N-(2-aminoethyl)-7-[3-fluoro-4-({[(2-fluoro-5-methylphenyl)amino]carbonyl}amino)phenoxy]thieno[3,2-b]pyridine-2-carboxamide] | – | 11 nM | 4 nM | – | 15 nM |
| Cc1ccc(F)c(NC(=O)Nc2ccc(Oc3ccnc4cc(C(=O)NCCNC(=O)OC(C)(C)C)sc34)cc2F)c1 [Example 33] | – | 60 nM | 24 nM | – | 69 nM |
| Cc1ccc(F)c(NC(=O)Nc2ccc(Oc3ccnc4cc(C(=O)NCCCN5CCN(C)CC5)sc34)cc2F)c1 [Example 34, 7-[3-fluoro-4-({[(2-fluoro-5-methylphenyl)amino]carbonyl}amino)phenoxy]-N-[3-(4-methylpiperazin-1-yl)propyl]thieno[3,2-b]pyridine-2-carboxamide] | – | 6 nM | 3 nM | – | 11 nM |
| Cc1ccc(F)c(NC(=O)Nc2ccc(Oc3ccnc4cc(C(=O)NCCCN5CCOC(CO)C5)sc34)cc2F)c1 (centres unmarked) [Example 37, 7-[3-fluoro-4-({[(2-fluoro-5-methylphenyl)amino]carbonyl}amino)phenoxy]-N-{3-[2-(hydroxymethyl)morpholin-4-yl]propyl}thieno[3,2-b]pyridine-2-carboxamide] | 1 nM | 9 nM | 7 nM | – | – |
| Cc1ccc(F)c(NC(=O)Nc2ccc(Oc3ccnc4cc(C(=O)NCCCN5CCC(O)CC5)sc34)cc2F)c1 [Example 38, 7-[3-fluoro-4-({[(2-fluoro-5-methylphenyl)amino]carbonyl}amino)phenoxy]-N-[3-(4-hydroxypiperidin-1-yl)propyl]thieno[3,2-b]pyridine-2-carboxamide] | 14 nM | 8 nM | 7 nM | – | – |
| COC(=O)[C@@H]1C[C@@H](O)CN1CCCNC(=O)c1cc2nccc(Oc3ccc(NC(=O)Nc4cc(C)ccc4F)c(F)c3)c2s1 [Example 39, methyl (2S,4R)-1-{3-[({7-[3-fluoro-4-({[(2-fluoro-5-methylphenyl)amino]carbonyl}amino)phenoxy]thieno[3,2-b]pyridin-2-yl}carbonyl)amino]propyl}-4-hydroxypyrrolidine-2-carboxylate] | 2 nM | 8 nM | 5 nM | – | – |
| CCNC(=O)[C@H](CCC(=O)O)NC(=O)c1cc2nccc(Oc3ccc(NC(=O)Nc4cc(C)ccc4F)c(F)c3)c2s1 [Example 46, (4S)-5-(ethylamino)-4-[({7-[3-fluoro-4-({[(2-fluoro-5-methylphenyl)amino]carbonyl}amino)phenoxy]thieno[3,2-b]pyridin-2-yl}carbonyl)amino]-5-oxopentanoic acid] | 328 nM | – | 19 nM | Efficacious | – |
| Cc1ccc(F)c(NC(=O)Nc2ccc(Oc3ccnc4cc(C(=O)NCCCN5CCC(C(=O)O)C5)sc34)cc2F)c1 (centres unmarked) [Example 50, 1-{3-[({7-[3-fluoro-4-({[(2-fluoro-5-methylphenyl)amino]carbonyl}amino)phenoxy]thieno[3,2-b]pyridin-2-yl}carbonyl)amino]propyl}pyrrolidine-3-carboxylic acid] | 80 nM | 18 nM | 16 nM | – | – |
| Cc1ccc(F)c(NC(=O)Nc2ccc(Oc3ccnc4cc(C(=O)NCCCN5CCOCC5)sc34)cc2F)c1 [Example 55, 7-[3-fluoro-4-({[(2-fluoro-5-methylphenyl)amino]carbonyl}amino)phenoxy]-N-(3-morpholin-4-ylpropyl)thieno[3,2-b]pyridine-2-carboxamide] | 7 nM | 7 nM | 11 nM | Efficacious | – |
| CCOC(=O)CCCNC(=O)c1cc2nccc(Oc3ccc(NC(=O)Nc4cc(C)ccc4F)c(F)c3)c2s1 [Example 57, ethyl 4-[({7-[3-fluoro-4-({[(2-fluoro-5-methylphenyl)amino]carbonyl}amino)phenoxy]thieno[3,2-b]pyridin-2-yl}carbonyl)amino]butanoate] | 1 nM | 15 nM | 14 nM | – | – |
| Cc1ccc(F)c(NC(=O)Nc2ccc(Oc3ccnc4cc(C(=O)NCCCC(=O)O)sc34)cc2)c1 [Example 65, 4-[({7-[4-({[(2-fluoro-5-methylphenyl)amino]carbonyl}amino)phenoxy]thieno[3,2-b]pyridin-2-yl}carbonyl)amino]butanoic acid] | 2 nM | 7 nM | 12 nM | – | – |
| CCN(CC)CCNC(=O)c1cc2nccc(Oc3ccc(NC(=O)Nc4cc(C)ccc4F)cc3)c2s1 [Example 69, N-[2-(diethylamino)ethyl]-7-[4-({[(2-fluoro-5-methylphenyl)amino]carbonyl}amino)phenoxy]thieno[3,2-b]pyridine-2-carboxamide] | 11 nM | 5 nM | 4 nM | – | 13 nM |
